According to patent US7763626B2, “Compositions and method for enhancing the therapeutic activity of opiods in treatment of pain” (Trustees of Dartmouth College, priority 2004, dated 2010):

What was measured:
[1] = tested on: GLAST mRNA; assay: Real time RT-PCR of ipsilateral lumbar spinal cord after L5 spinal nerve transection; type: in vivo, rat; conditions: day 4; compared to L5 spinal nerve transection alone; did not attain statistical significance
Experimental: (§1) Experiments were performed to determine how propentofylline-induced suppression of glial activation contribute to reduced behavioral hypersensitivity after nerve injury. In a preventative paradigm, 10 μg of propentofylline (Sigma) to male Sprague-Dawley rats in 40 μl of sterile saline, or saline vehicle alone was administered intrathecally (i.t.) by lumbar puncture at the L4/5 level under brief halothane anesthesia (n=6-8/group). Treatment began one hour prior to L5 spinal nerve transection and continued daily in the evening until day 4 or 12 post-transection. Rats received either an L5 spinal nerve transection or sham surgery on day 0. The development of mechanical allodynia was monitored as described above in the morning at approximately 15 hours post-propentofylline or saline injection. Rats were euthanized on day 4 or 12 post-transection and tissue was further processed by real time RT-PCR, Western blot, or immunohistochemistry for determination of levels and rate of synthesis of the glutamate transporters GLT-1 and GLAST.
(§2) Tissue was collected from 4-5 rats/group on postoperative days 4 or 12. In order to obtain both mRNA and protein from the same tissue sample, the L5 region of the spinal cord (ipsilateral to the injury), was isolated and placed in PBS supplemented with protease inhibitor cocktail (1:1000, Sigma, St. Louis, Mo.) and RNase inhibitor (0.75 U/μL Ambion, Austin, Tex.). […]
(§3) Real time RT-PCR reactions were carried out in a total reaction volume of 25 uL containing a final concentration of 1.5 U Platinum Taq DNA polymerase (Invitrogen); 20 mM Tris HCl (pH 8.4); 50 mM KCl; 3 mM MgCl2; 200 uM dGTP, dCTP, and dATP; 400 uM dUTP and 1 U of UDG (uracyl DNA glycosylase); 900 nM of forward and reverse primers; 300 nM Taqman probe; and 5 uL of a 10-fold dilution of cDNA (50 ng) from the RT step. […] The iCycler Multicolor Real-Time PCR detection system (Bio-Rad) was used to quantify PCR product. The fluorescence and threshold values obtained were used to compare the relative amount of target mRNA in experimental groups to those of controls (Livak and Schmittgen 2001). […]

[2] = tested on: GLT-1 mRNA; assay: as above; type: in vivo, rat; conditions: daily intrathecal propentofylline 10 μg
Experimental: as §1, §2, §3

[3] = tested on: TNF-α mRNA; assay: RNase protection assay, cytokine mRNA at L5 lumbar spinal cord; conditions: propentofylline 10 micrograms intrathecally for 5 days during induction of morphine tolerance
Experimental: After behavioral testing for reactions to the combined treatment, rats were sacrificed and decapitated. An 18-gauge needle was inserted into the caudal end of the vertebral column and the spinal cord was expelled with ice-cold phosphate-buffered saline. The spinal cord was frozen immediately on dry ice and stored at −80° C. until homogenization. The L5 lumbar spinal cord was isolated from the intact frozen cord at the time of mRNA and protein quantification. Total RNA was isolated from the L5 spinal cord by the TRIzol extraction method (Invitrogen Corporation, Carlsbad, Calif).
Assessment of the temporal cytokine mRNA expression in the L5 lumber spinal cord was performed using a Ribonuclease Protection Assay technique. A Multiprobe RPAse kit was used (Pharmingen, San Diego, Calif.). […] Quantitative image analysis was employed to compare mRNA levels based on band intensities for each cytokine. The intensity of each band was measured using image analysis software and assigned an arbitrary unit based on the measured intensity levels. The value for the normalized quantity for each band was obtained by dividing by the L32 house-keeping gene control. Individual mRNA concentration was calculated as the ratio of the expression compared with saline-treated animals in which normal values were weighted as 1.

[4] = tested on: GFAP mRNA; assay: Real-time PCR of GFAP mRNA at L5 lumbar spinal cord; type: in vivo, rat
Experimental: Total RNA was treated with DNase I (Ambion, Austin, Tex.) to remove DNA contamination before cDNA synthesis. The reverse transcription (RT) was carried out in a 100 μl total reaction volume containing RT buffer, dNTPs, multiscribe reverse transcriptase, RNase-free water and 10 μg of DNase-treated total RNA. The RT reaction was carried out at 25° C. for 10 minutes, 37° C. for 120 minutes, and 95° C. for 5 minutes. Real-time PCR analysis was performed using gene-specific primers and probes that were designed and blasted against GENBANK to confirm their species and gene specificity. […] The real-time PCR reactions were carried out using Platinum Taq DNA polymerase, 20 mM Tris HCl (pH 8.4), 50 mM KCl, 3 mM MgCl2, 200 μM dGTP, dCTP, and dATP, 400 μM of dUTP and 1 U uracyl DNA glycosylase (UDG), 900 nM forward and reverse primers, 300 nM TaqMan probe, and 10-fold dilution of cDNA (50 ng) from the RT step. Primers and probes for glyceraldehyde-3-phosphate (GADPH), GFAP and Mac-1 were obtained form Applied Biosystems (LaJolla, Calif.). The relative standard curves generated by plotting the threshold value versus the log of the amount of total cDNA added to the reaction (1-10000 pg) were used to compare the relative amount of target genes from control and chronic morphine-treated animals.

[5] = tested on: Male Sprague-Dawley rats; assay: L5 spinal nerve transection model, mechanical allodynia; type: in vivo, rat
Experimental: as §1, with “Rats were euthanized on day 4 or 12 post-transection and tissue was further processed by real time RT-PCR, Western blot, or immunohistochemistry for determination of levels and rate of synthesis of the glutamate transporters GLT-1 and GLAST.” left out
Mechanical sensitivity was measured as the frequency of foot withdrawals elicited by a defined mechanical stimulus. […]
In blinded testing, rats were subjected to sequential series of 10 tactile stimulations to the dorsal surface of the ipsilateral hindpaw using […] von Frey filaments (Stoelting Co., WoodDale, Ill.) sequentially. The number of foot withdrawals to this normally non-noxious stimulus determined mechanical allodynia. Mechanical sensitivity was assessed by recording the total number of responses elicited during three successive trials separated by at least 10 minutes. […]

CCCn1cnc2c1c(=O)n(CCCCC(C)=O)c(=O)n2C [propentofylline]
GLAST mRNA level [1]: slight decrease
GLT-1 mRNA level ([2]; day 4 post-transection, vs sham-operated and L5 nerve transected rats): significantly increased
GLT-1 mRNA level ([2]; day 12 post-transection, vs L5 nerve transected rats): significantly increased
morphine-induced mRNA upregulation for TNF-α [3]: significantly attenuated
GFAP mRNA levels at the L5 lumbar spinal cord ([4]; compared to saline-treated controls, morphine 10 mg/kg twice daily 5 days, or propentofylline 10 micrograms intrathecally 5 days in saline-treated rats): no effect
chronic morphine-induced upregulation of GFAP ([4]; propentofylline during the induction phase of morphine tolerance): significantly attenuated
development of mechanical allodynia after L5 spinal nerve transection ([5]; 10 μg i.t. daily from one hour prior to transection, 12 g Von Frey filament, all time points, vs L5 saline rats): robustly inhibited
mechanical allodynia after L5 spinal nerve transection compared with normal group ([5]; 10 μg i.t. daily, day 5, 7, 9 and 12): no longer discernable from the normal group
